Measurements: patent US6737383B1, “Herbicidal oxadiazolidines” (priority 1999, dated 2004)

Key:
wheat = assay: Test B pre/postemergence wheat; format: in vivo, Triticum aestivum
Method in brief: (§1)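 Test chemicals in a non-phytotoxic solvent mixture with surfactant were sprayed preemergence onto planted seeds and postemergence onto plants 2 to 18 cm tall (1- to 4-leaf stage). After twelve to sixteen days in a greenhouse, injury was visually rated against untreated controls from 0 (no effect) to 10 (complete control).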

sugar beet = assay: Test B pre/postemergence sugar beet; format: in vivo, Beta vulgaris
Method in brief: as §1

crabgrass = assay: Test B pre/postemergence crabgrass; format: in vivo, Digitaria sanguinalis
Method in brief: as §1

velvetleaf = assay: Test B pre/postemergence velvetleaf; format: in vivo, Abutilon theophrasti
Method in brief: as §1

corn = assay: Test B pre/postemergence corn; format: in vivo, Zea mays
Method in brief: as §1

morningglory = assay: Test B pre/postemergence morningglory; format: in vivo, Ipomoea hederacea
Method in brief: as §1

blackgrass = assay: Test B pre/postemergence blackgrass; format: in vivo, Alopecurus myosuroides
Method in brief: as §1

surinam grass = assay: Test B pre/postemergence surinam grass; format: in vivo, Brachiaria decumbens
Method in brief: as §1

purple nutsedge = assay: Test B pre/postemergence purple nutsedge; format: in vivo, Cyperus rotundus
Method in brief: as §1

rape = assay: Test B pre/postemergence rape; format: in vivo, Brassica napus
Method in brief: as §1

wild oat = assay: Test B pre/postemergence wild oat; format: in vivo, Avena fatua
Method in brief: as §1

bedstraw = assay: Test B pre/postemergence bedstraw; format: in vivo, Galium aparine
Method in brief: as §1

cocklebur = assay: Test B pre/postemergence cocklebur; format: in vivo, Xanthium strumarium
Method in brief: as §1

pigweed = assay: Test B pre/postemergence pigweed; format: in vivo, Amaranthus retroflexus
Method in brief: as §1

[1] = Preemergence, Rate 62 g/ha, scale of 0 to 10 where 0 is no effect and 10 is complete control
[2] = Preemergence, Rate 125 g/ha, 0 is no effect, 10 is complete control
[3] = Preemergence, Rate 250 g/ha, scale 0 to 10, 0 is no effect, 10 is complete control
[4] = Preemergence, Rate 500 g/ha, scale 0 to 10 (0 no effect, 10 complete control)
[5] = Rate 250 g/ha, Postemergence, scale 0 to 10, 0 is no effect, 10 is complete control
[6] = Rate 500 g/ha, Postemergence, scale 0 to 10
[7] = Postemergence, Rate 125 g/ha, scale of 0 to 10 where 0 is no effect and 10 is complete control
[8] = Rate 62 g/ha, Postemergence, scale of 0 to 10 where 0 is no effect and 10 is complete control

CC(C)N(C(=O)n1oc(=O)n([C@@H](C)c2ccccc2)c1=O)c1ccccc1 [Compound 173]
Wheat plant response rating (wheat; [1]): 0 | Wheat plant response rating (0 to 10 scale) (wheat; [2]): 0 | Wheat plant response rating (wheat; [3]): 0 | Wheat plant response rating (wheat; [4]): 0 | Plant response rating, Wheat (wheat; [5]): 0 | Wheat plant response rating (wheat; [6]): 0 | Sugarbeets plant response rating (sugar beet; [7]): 0 | Sugarbeets plant response rating (sugar beet; [1]): 0 | Sugarbeets plant response rating (0 to 10 scale) (sugar beet; [2]): 2 | Sugarbeets plant response rating (sugar beet; [3]): 3 | Sugarbeets plant response rating (sugar beet; [4]): 6 | Sugarbeets plant response rating (sugar beet; [8]): 0 | Plant response rating, Sugarbeets (sugar beet; [5]): 0 | Sugarbeets plant response rating (sugar beet; [6]): 5 | Crabgrass plant response rating (crabgrass; [7]): 4 | Crabgrass plant response rating (crabgrass; [1]): 2 | Crabgrass plant response rating (0 to 10 scale) (crabgrass; [2]): 6 | Crabgrass plant response rating (crabgrass; [3]): 8 | Crabgrass plant response rating (crabgrass; [4]): 9 | Crabgrass plant response rating (crabgrass; [8]): 0 | Plant response rating, Crabgrass (crabgrass; [5]): 5 | Crabgrass plant response rating (crabgrass; [6]): 8 | Velvetleaf plant response rating (velvetleaf; [1]): 0 | Velvetleaf plant response rating (0 to 10 scale) (velvetleaf; [2]): 0 | Velvetleaf plant response rating (velvetleaf; [3]): 0 | Velvetleaf plant response rating (velvetleaf; [4]): 0 | Plant response rating, Velvetleaf (velvetleaf; [5]): 0 | Velvetleaf plant response rating (velvetleaf; [6]): 0 | Corn plant response rating (corn; [7]): 0 | Corn plant response rating (corn; [1]): 0 | Corn plant response rating (0 to 10 scale) (corn; [2]): 0 | Corn plant response rating (corn; [3]): 0 | Corn plant response rating (corn; [4]): 0 | Corn plant response rating (corn; [8]): 0 | Plant response rating, Corn (corn; [5]): 0 | Corn plant response rating (corn; [6]): 0 | Morningglory plant response rating (morningglory; [7]): 10 | Morningglory plant response rating (morningglory; [1]): 0 | Morningglory plant response rating (0 to 10 scale) (morningglory; [2]): 0 | Morningglory plant response rating (morningglory; [3]): 0 | Morningglory plant response rating (morningglory; [4]): 0 | Morningglory plant response rating (morningglory; [8]): 7 | Plant response rating, Morningglory (morningglory; [5]): 10 | Morningglory plant response rating (morningglory; [6]): 10 | Blackgrass plant response rating (blackgrass; [7]): 0 | Blackgrass plant response rating (blackgrass; [1]): 0 | Blackgrass plant response rating (0 to 10 scale) (blackgrass; [2]): 0 | Blackgrass plant response rating (blackgrass; [3]): 0 | Blackgrass plant response rating (blackgrass; [4]): 6 | Blackgrass plant response rating (blackgrass; [8]): 0 | Plant response rating, Blackgrass (blackgrass; [5]): 2 | Blackgrass plant response rating (blackgrass; [6]): 2 | B. signalgrass plant response rating (surinam grass; [7]): 0 | B. signalgrass plant response rating (surinam grass; [1]): 0 | B. signalgrass plant response rating (0 to 10 scale) (surinam grass; [2]): 0 | B. signalgrass plant response rating (surinam grass; [3]): 3 | B. signalgrass plant response rating (surinam grass; [4]): 4 | B. signalgrass plant response rating (surinam grass; [8]): 0 | Plant response rating, B. signalgrass (surinam grass; [5]): 0 | B. signalgrass plant response rating (surinam grass; Rate 500 g/ha, Postemergence, scale 0 to 10, 0 no effect, 10 complete control): 0 | Nutsedge plant response rating (purple nutsedge; [7]): 0 | Nutsedge plant response rating (purple nutsedge; [1]): 0 | Nutsedge plant response rating (0 to 10 scale) (purple nutsedge; [2]): 0 | Nutsedge plant response rating (purple nutsedge; [3]): 0 | Nutsedge plant response rating (purple nutsedge; [4]): 0 | Nutsedge plant response rating (purple nutsedge; [8]): 0 | Plant response rating, Nutsedge (purple nutsedge; [5]): 0 | Nutsedge plant response rating (purple nutsedge; [6]): 0 | Rape plant response rating (rape; [7]): 0 | Rape plant response rating (rape; [1]): 0 | Rape plant response rating (0 to 10 scale) (rape; [2]): 0 | Rape plant response rating (rape; [3]): 0 | Rape plant response rating (rape; [4]): 0 | Rape plant response rating (rape; [8]): 0 | Plant response rating, Rape (rape; [5]): 0 | Rape plant response rating (rape; [6]): 0 | Wild oats plant response rating (wild oat; [1]): 0 | Wild oats plant response rating (0 to 10 scale) (wild oat; [2]): 0 | Wild oats plant response rating (wild oat; [3]): 2 | Wild oats plant response rating (wild oat; [4]): 3 | Plant response rating, Wild oats (wild oat; [5]): 0 | Wild oats plant response rating (wild oat; [6]): 0 | Bedstraw plant response rating (bedstraw; [7]): 0 | Bedstraw plant response rating (bedstraw; [1]): 0 | Bedstraw plant response rating (0 to 10 scale) (bedstraw; [2]): 0 | Bedstraw plant response rating (bedstraw; [3]): 0 | Bedstraw plant response rating (bedstraw; [4]): 0 | Bedstraw plant response rating (bedstraw; [8]): 0 | Plant response rating, Bedstraw (bedstraw; [5]): 4 | Cocklebur plant response rating (cocklebur; [7]): 0 | Cocklebur plant response rating (cocklebur; [1]): 0 | Cocklebur plant response rating (0 to 10 scale) (cocklebur; [2]): 0 | Cocklebur plant response rating (cocklebur; [3]): 0 | Cocklebur plant response rating (cocklebur; [4]): 0 | Cocklebur plant response rating (cocklebur; [8]): 0 | Plant response rating, Cocklebur (cocklebur; [5]): 1 | Cocklebur plant response rating (cocklebur; [6]): 2 | Redroot pigweed plant response rating (pigweed; [7]): 0 | Redroot pigweed plant response rating (pigweed; [1]): 0 | Redroot pigweed plant response rating (0 to 10 scale) (pigweed; [2]): 0 | Redroot pigweed plant response rating (pigweed; [3]): 0 | Redroot pigweed plant response rating (pigweed; [4]): 5 | Redroot pigweed plant response rating (pigweed; [8]): 0 | Plant response rating, Redroot pigweed (pigweed; [5]): 0 | Redroot pigweed plant response rating (pigweed; [6]): 0
